Measured values from ChEMBL document CHEMBL2424576, “Chiral N-benzyl-N-methyl-1-(naphthalen-1-yl)ethanamines and their in vitro antifungal activity against Cryptococcus neoformans, Trichophyton mentagrophytes and Trichophyton rubrum” (2013).
In brackets after ≈: the same amount, converted by molar mass.

Columns and labels:
Type in all cases: functional
[1] = tested on: Trichophyton mentagrophytes; test: Antifungal activity against Trichophyton mentagrophytes after 7 days by broth microdilution method; conditions: 168 h
[2] = tested on: Cryptococcus neoformans; test: Antifungal activity against Cryptococcus neoformans after 72 hrs by broth microdilution method
[3] = tested on: Trichophyton rubrum; test: Antifungal activity against Trichophyton rubrum after 7 days by broth microdilution method; conditions: 168 h
[4] = tested on: Trichophyton mentagrophytes; test: Antifungal activity against Trichophyton mentagrophytes assessed as fungal growth at 0.25 ug/ml after 7 days by broth microdilution method
[5] = tested on: Trichophyton rubrum; test: Antifungal activity against Trichophyton rubrum assessed as fungal growth at 0.25 ug/ml after 7 days by broth microdilution method
[6] = tested on: Cryptococcus neoformans; test: Antifungal activity against Cryptococcus neoformans assessed as fungal growth at 0.125 ug/ml after 72 hrs by broth microdilution method

| SMILES | MIC50 [1] [µg/mL] | MIC80 [1] [µg/mL] | MIC50 [2] [µg/mL] | MIC80 [2] [µg/mL] | MIC50 [3] [µg/mL] | MIC80 [3] [µg/mL] | Activity [4] [%] | Activity [5] [%] | Activity [6] [%] |
| --- | --- | --- | --- | --- | --- | --- | --- | --- | --- |
| C[C@H](c1ccc(C(C)(C)C)cc1)N(C)Cc1cccc2ccccc12 | > 32 | > 32 | > 32 | > 32 | > 32 | > 32 |  |  |  |
| C[C@H](c1cccc2ccccc12)N(C)Cc1ccc(-c2ccccc2)cc1 |  |  | > 16 | > 32 |  |  |  |  |  |
| C[C@H](c1cccc2ccccc12)N(C)Cc1ccccc1C(F)(F)F |  |  | > 32 | > 32 |  |  |  |  |  |
| CC(C)(C)c1ccc([C@H](CF)NCc2cccc3ccccc23)cc1 | 2 (≈ 5.96 µM) | 4 (≈ 11.9 µM) | > 32 | > 32 | 2 (≈ 5.96 µM) | 4 (≈ 11.9 µM) |  |  |  |
| C[C@H](c1cccc2ccccc12)N(C)Cc1ccc(C(F)(F)F)cc1 | 0.25 (≈ 0.728 µM) | 0.5 (≈ 1.46 µM) | 0.5 (≈ 1.46 µM) | 1 (≈ 2.91 µM) | 0.25 (≈ 0.728 µM) | 0.5 (≈ 1.46 µM) |  |  |  |
| C[C@@H]1[C@H](O)[C@@H](C)/C=C/C=C/C=C/C=C/C=C/C=C/C=C/[C@H](O[C@@H]2O[C@H](C)[C@@H](O)[C@H](N)[C@@H]2O)C[C@@H]2O[C@](O)(C[C@@H](O)C[C@@H](O)[C@H](O)CC[C@@H](O)C[C@@H](O)CC(=O)O[C@H]1C)C[C@H](O)[C@H]2C(=O)O [AMPHOTERICIN B] | 0.5 (≈ 0.541 µM) | < 1 | 0.25 (≈ 0.271 µM) | < 0.5 | > 0.25 | < 0.5 |  |  |  |
| C[C@H](c1cccc2ccccc12)N(C)Cc1cc(C(F)(F)F)cc(C(F)(F)F)c1 |  |  | > 32 | > 32 |  |  |  |  |  |
| C[C@H](c1cccc2ccccc12)N(C)Cc1ccc([Si](C)(C)C)cc1 |  | 0.5 (≈ 1.44 µM) | 0.5 (≈ 1.44 µM) | 1 (≈ 2.88 µM) |  | 0.5 (≈ 1.44 µM) | >50 | >50 |  |
| C[C@H](c1cccc2ccccc12)N(C)Cc1ccc(OC(F)(F)F)cc1 |  | 0.5 (≈ 1.39 µM) | 2 (≈ 5.56 µM) | 4 (≈ 11.1 µM) | 0.5 (≈ 1.39 µM) | 1 (≈ 2.78 µM) | >50 |  |  |
| C[C@H](c1cccc2ccccc12)N(C)Cc1cc(C(C)(C)C)cc(C(C)(C)C)c1 |  |  | 32 (≈ 82.6 µM) | > 32 |  |  |  |  |  |
| C[C@H](c1cccc2ccccc12)N(C)Cc1ccc(OCc2ccccc2)cc1 | 0.125 (≈ 0.328 µM) | 0.25 (≈ 0.655 µM) | 0.5 (≈ 1.31 µM) | 1 (≈ 2.62 µM) | 0.125 (≈ 0.328 µM) | 0.25 (≈ 0.655 µM) |  |  |  |
| C[C@@H](c1ccc(C(C)(C)C)cc1)N(C)Cc1cccc2ccccc12 | 0.5 (≈ 1.51 µM) | 1 (≈ 3.02 µM) | 2 (≈ 6.03 µM) | 4 (≈ 12.1 µM) | 0.5 (≈ 1.51 µM) | 1 (≈ 3.02 µM) |  |  |  |
| Cc1cc(C(C)(C)C)cc(C)c1CN(C)[C@H](C)c1cccc2ccccc12 | > 32 | > 32 | 1 (≈ 2.78 µM) | 32 (≈ 89 µM) | > 32 | > 32 |  |  |  |
| CN(Cc1cccc2ccccc12)[C@@H](CF)c1ccc(C(C)(C)C)cc1 | > 32 | > 32 | > 32 | > 32 | > 32 | > 32 |  |  |  |
| CN(Cc1cccc2ccccc12)[C@H](CF)c1ccc(C(C)(C)C)cc1 | > 32 | > 32 | > 32 | > 32 | > 32 | > 32 |  |  |  |
| C[C@H](c1cccc2ccccc12)N(C)Cc1ccccc1-c1ccccc1 |  |  | > 32 | > 32 |  |  |  |  |  |
| CN(Cc1ccc(C(C)(C)C)cc1)Cc1cccc2ccccc12 [BUTENAFINE] | 0.06 (≈ 0.189 µM) | 0.125 (≈ 0.394 µM) | 0.5 (≈ 1.57 µM) | 1 (≈ 3.15 µM) | 0.03 (≈ 0.0945 µM) | 0.06 (≈ 0.189 µM) |  |  |  |
| CC(C)(C)c1ccc([C@@H](CF)NCc2cccc3ccccc23)cc1 | > 32 | > 32 | > 32 | > 32 | > 32 | > 32 |  |  |  |

More lines, main results first:

| MIC50 [1] [µg/mL] | MIC80 [1] [µg/mL] | MIC50 [2] [µg/mL] | MIC80 [2] [µg/mL] | MIC50 [3] [µg/mL] | MIC80 [3] [µg/mL] | SMILES | Activity [4] [%] | Activity [5] [%] | Activity [6] [%] |
| --- | --- | --- | --- | --- | --- | --- | --- | --- | --- |
|  |  | > 32 | > 32 |  |  | C[C@H](c1cccc2ccccc12)N(C)Cc1ccccn1 |  |  |  |
|  |  | 16 (≈ 58.1 µM) | > 16 |  |  | C[C@H](c1cccc2ccccc12)N(C)Cc1ccccc1 |  |  |  |
| 4 (≈ 11.6 µM) | > 32 | 4 (≈ 11.6 µM) | 8 (≈ 23.3 µM) | 2 (≈ 5.82 µM) | 4 (≈ 11.6 µM) | C[C@H](c1cccc2ccccc12)N(C)Cc1cccc(C(F)(F)F)c1 |  |  |  |
| 1 (≈ 3.27 µM) | 2 (≈ 6.55 µM) | 2 (≈ 6.55 µM) | 4 (≈ 13.1 µM) | 1 (≈ 3.27 µM) | 2 (≈ 6.55 µM) | COc1ccc(CN(C)[C@H](C)c2cccc3ccccc23)cc1 |  |  |  |
|  |  | > 32 | > 32 |  |  | C[C@H](c1cccc2ccccc12)N(C)Cc1ccccc1Br |  |  |  |
|  |  | 16 (≈ 57.9 µM) | > 32 |  |  | C[C@H](c1cccc2ccccc12)N(C)Cc1ccncc1 |  |  |  |
|  |  | 1 (≈ 3.02 µM) | 2 (≈ 6.03 µM) |  |  | C[C@@H](c1cccc2ccccc12)N(C)Cc1ccc(C(C)(C)C)cc1 |  |  |  |
|  |  | > 32 | > 32 |  |  | C[C@H](c1cccc2ccccc12)N(C)Cc1cccnc1 |  |  |  |
|  |  | > 32 | > 32 |  |  | C[C@H](c1cccc2ccccc12)N(C)Cc1ccccc1F |  |  |  |
|  |  | 4 (≈ 13.6 µM) | 8 (≈ 27.3 µM) |  |  | C[C@H](c1cccc2ccccc12)N(C)Cc1ccc(F)cc1 |  |  |  |
| 1 (≈ 3.12 µM) | 2 (≈ 6.24 µM) | 2 (≈ 6.24 µM) | > 16 | 0.25 (≈ 0.78 µM) | 0.5 (≈ 1.56 µM) | C[C@H](c1cccc2ccccc12)N(C)Cc1ccc([N+](=O)[O-])cc1 |  |  |  |
| 0.06 (≈ 0.181 µM) | 0.125 (≈ 0.377 µM) |  | 0.25 (≈ 0.754 µM) | 0.06 (≈ 0.181 µM) | 0.125 (≈ 0.377 µM) | C[C@H](c1cccc2ccccc12)N(C)Cc1ccc(C(C)(C)C)cc1 |  |  | >50 |
| 0.25 (≈ 0.864 µM) | 0.5 (≈ 1.73 µM) | 0.5 (≈ 1.73 µM) | 1 (≈ 3.46 µM) | 0.25 (≈ 0.864 µM) | 0.5 (≈ 1.73 µM) | Cc1ccc(CN(C)[C@H](C)c2cccc3ccccc23)cc1 |  |  |  |
| 0.25 (≈ 0.706 µM) | 0.5 (≈ 1.41 µM) | 0.5 (≈ 1.41 µM) | 1 (≈ 2.82 µM) | 0.125 (≈ 0.353 µM) | 0.25 (≈ 0.706 µM) | C[C@H](c1cccc2ccccc12)N(C)Cc1ccc(Br)cc1 |  |  |  |
| 2 (≈ 5.65 µM) | 4 (≈ 11.3 µM) | 4 (≈ 11.3 µM) | 8 (≈ 22.6 µM) | 1 (≈ 2.82 µM) | 2 (≈ 5.65 µM) | C[C@H](c1cccc2ccccc12)N(C)Cc1cccc(Br)c1 |  |  |  |
